The values below come from patent publication US10051861B2, “N-arylamidine-substituted trifluoroethyl sulfide derivatives as acaricides and insecticides” (BAYER CROPSCIENCE AG, priority 2011, dated 2018).

In the first experiment the test system is greenhouse red spider mite (Tetranychus urticae). In words: Tetranychus urticae spray test, OP-resistant (TETRUR), bean leaf disks. In kind it is in vivo. The settings on record: Tetranychus urticae, foliar, 144 h, application rate 500 g/ha, after 6 days; read-out: efficacy (spider mites killed). As to the method:
After 6 days, the effect in % is determined.
In the case of `CN/C(CC(F)(F)F)=N\c1cc(SCC(F)(F)F)c(C)cc1F` [Ia-233], the pest or weed control at 500 g/ha turned out to be 100%. In the case of `Cc1cc(Cl)c(SCC(F)(F)F)cc1/N=C(\N)c1cnccn1` [Ia-234], the pest or weed control at 500 g/ha is 100%. In the case of `FC(F)(F)CSc1cc(/N=C(\NCCc2ncc(C(F)(F)F)cc2Cl)C2CC2)c(Cl)cc1Cl` [Ia-235], the pest or weed control at 500 g/ha came to 90%. In the case of `COc1cc(C)c(SCC(F)(F)F)cc1/N=C(/N)C(F)(F)F` [Ia-236, 2,2,2-Trifluoro-N′-{2-methoxy-4-methyl-5-[(2,2,2-trifluoroethyl)sulfanyl]phenyl}ethanimidamide], the pest or weed control at 500 g/ha was determined as 100%. For the compound `CN(C)/C(=N\c1cc(SCC(F)(F)F)c(Cl)cc1Cl)c1ccc(Cl)nc1` [Ia-237], the pest or weed control at 500 g/ha stood at 90%. For `CN/C(=N\c1cc(SCC(F)(F)F)c(C)cc1C)c1ccncc1` [Ia-239], the pest or weed control at 500 g/ha came out at 100%. `Cc1cc(C)c(SCC(F)(F)F)cc1/N=C(/c1ccccc1)N(C)C` [Ia-240]: the pest or weed control at 500 g/ha came to 90%. For `Cc1cc(C)c(SCC(F)(F)F)cc1/N=C(\NCC(F)(F)F)C1CCCC1` [Ia-241], the pest or weed control at 500 g/ha was determined as 90%. On to `Cc1cc(F)c(/N=C(\c2ccc(C(F)(F)F)cc2)N(C)C)cc1SCC(F)(F)F` [Ia-242], for which the pest or weed control at 500 g/ha was determined as 100%.

Regarding `C#CCN/C(=N\c1cc(SCC(F)(F)F)c(Cl)cc1Cl)C1CC1` [Ia-244], the pest or weed control at 500 g/ha stood at 90%. In the case of `Cc1cc(F)c(/N=C(\c2ccccc2C(F)(F)F)N(C)C)cc1SCC(F)(F)F` [Ia-245], the pest or weed control at 500 g/ha was determined as 90%. The same measure, in the same setting: the same measure for `Cc1cc(F)c(/N=C(\NC2CCS(=O)(=O)C2)C2CC2)cc1SCC(F)(F)F` (stereo not shown) [Ia-247]: 100%; for `CN/C(=N\c1cc(SCC(F)(F)F)c(Cl)cc1Cl)c1ccccn1` [Ia-248]: 90%. With `C#CCN/C(=N\c1cc(SCC(F)(F)F)c(C)cc1F)C1CC1` [Ia-249], the pest or weed control at 500 g/ha is 100%. For the compound `COc1cc(C)c(SCC(F)(F)F)cc1/N=C(/c1ccc(Cl)cc1)N(C)C` [Ia-252], the pest or weed control at 500 g/ha amounted to 90%. Still for that read-out and setting: next, `FC(F)CN/C(=N\c1cc(SCC(F)(F)F)c(Cl)cc1Cl)C1CC1` [Ia-253]: 90%; `FC(F)(F)CN/C(=N\c1cc(SCC(F)(F)F)c(Cl)cc1Cl)C1CCCC1` [Ia-254]: 90%. Take `COc1cc(C)c(SCC(F)(F)F)cc1/N=C(\N)C1(Cl)CC1` [Ia-255]: the pest or weed control at 500 g/ha turned out to be 90%.

Take `FC(F)CN/C(=N\c1cc(SCC(F)(F)F)c(Cl)cc1Cl)C1CCCC1` [Ia-256]: the pest or weed control at 500 g/ha is 90%. For the compound `Cc1cc(C)c(SCC(F)(F)F)cc1/N=C(\NCC(F)F)C1CCCC1` [Ia-257], the pest or weed control at 500 g/ha worked out at 90%. On the same count and under the same terms, the same measure for `COC/C(N)=N/c1cc(SCC(F)(F)F)c(Cl)cc1Cl` [Ia-258]: 90%; for `FC(F)(F)CN/C(=N\c1cc(SCC(F)(F)F)c(Cl)cc1Cl)C1CCC1` [Ia-259]: 90%; for `COc1cc(C)c(SCC(F)(F)F)cc1/N=C(\N)c1ccncn1` [Ia-260]: 90%. For the compound `Cc1cc(F)c(/N=C(\NCC(F)(F)F)C2CCC2)cc1SCC(F)(F)F` [Ia-261], the pest or weed control at 500 g/ha worked out at 90%. On the same count and under the same terms, the same measure for `N/C(=N\c1cc(SCC(F)(F)F)c(Cl)cc1Cl)C1CCCO1` (stereo not shown) [Ia-262]: 90%. As to `COc1ccc(/C(N)=N\c2cc(SCC(F)(F)F)c(C)cc2F)cc1` [Ia-263], the pest or weed control at 500 g/ha was found to be 90%. As to `CN/C(=N\c1cc(SCC(F)(F)F)c(Cl)cc1Cl)c1ccc(C(F)(F)F)nc1` [Ia-264], the pest or weed control at 500 g/ha came out at 90%. For the compound `CN/C(=N\c1cc(SCC(F)(F)F)c(C)cc1C)c1cccc(Cl)c1` [Ia-265], the pest or weed control at 500 g/ha is 90%. Turning to `N/C(=N\c1cc(SCC(F)(F)F)c(Cl)cc1Cl)c1ccc(Cl)cc1` [Ia-266], the pest or weed control at 500 g/ha stood at 90%. For `Cc1cc(C)c(SCC(F)(F)F)cc1/N=C(\NCC(F)(F)F)C1CCC1` [Ia-267], the pest or weed control at 500 g/ha came out at 90%. Still for that read-out and setting: next, `Cc1cc(F)c(/N=C(/c2cccnc2)N2CCC(F)(F)CC2)cc1SCC(F)(F)F` [Ia-269]: 90%; `Cc1cc(F)c(/N=C(/c2ccc(Cl)cc2)N2CCC(F)(F)CC2)cc1SCC(F)(F)F` [Ia-270]: 90%. Regarding `Cc1cc(C)c(SCC(F)(F)F)cc1/N=C1\SCC(=O)N1CC(F)(F)F` [Ia-272], the pest or weed control at 500 g/ha came to 100%. For `Cc1cc(Cl)c(/N=C2\SCC(=O)N2CC(F)(F)F)cc1SCC(F)(F)F` [Ia-275], the pest or weed control at 500 g/ha was 100%. Turning to `Cc1cc(F)c(/N=c2\scc(C3(Cl)CC3)n2CC(F)(F)F)cc1SCC(F)(F)F` [Ia-276], the pest or weed control at 500 g/ha came to 100%. On to `Cc1cc(F)c(/N=C(\N)C2(Cl)CC2)cc1[S+]([O-])CC(F)(F)F` (stereo not shown) [Ib-22], for which the pest or weed control at 500 g/ha amounted to 100%.

For `CCN(C)/C(=N/c1cc([S+]([O-])CC(F)(F)F)c(C)cc1F)C(F)(F)F` (stereo not shown) [Ib-23], the pest or weed control at 500 g/ha turned out to be 90%. With `CN(C)/C(=N/c1cc([S+]([O-])CC(F)(F)F)c(Br)cc1Br)C(F)(F)F` (stereo not shown) [Ib-25], the pest or weed control at 500 g/ha stood at 100%. Consider `CN(C)/C(=N/c1cc([S+]([O-])CC(F)(F)F)c(Cl)cc1Cl)C(F)(F)F` (stereo not shown) [Ib-26], for which the pest or weed control at 500 g/ha amounted to 100%. Still for that read-out and setting: the same measure for `CN/C(=N\c1cc([S+]([O-])CC(F)(F)F)c(C)cc1F)c1cccnc1` (stereo not shown) [Ib-28, N′-{2-Fluoro-4-methyl-5-[(2,2,2-trifluoroethyl)sulfinyl]phenyl}-N-methylpyridine-3-carboximidamide]: 100%; for `Cc1cc(F)c(/N=C(/NCC2CC2)C(F)(F)F)cc1[S+]([O-])CC(F)(F)F` (stereo not shown) [Ib-29]: 100%.

Take `Cc1cc(Cl)c(/N=C(\N)C(F)(F)C(F)(F)Cl)cc1[S+]([O-])CC(F)(F)F` (stereo not shown) [Ib-31]: the pest or weed control at 500 g/ha turned out to be 100%. With `CN(C)/C(=N/c1cc([S+]([O-])CC(F)(F)F)c(Cl)cc1F)C(F)(F)F` (stereo not shown) [Ib-32], the pest or weed control at 500 g/ha was found to be 100%.

For `CCN(CC)/C(=N/c1cc([S+]([O-])CC(F)(F)F)c(C)cc1F)C(F)(F)F` (stereo not shown) [Ib-34], the pest or weed control at 500 g/ha is 100%. Regarding `Cc1cc(F)c(/N=C(/NC2(C)CC2)C(F)(F)F)cc1[S+]([O-])CC(F)(F)F` (stereo not shown) [Ib-36], the pest or weed control at 500 g/ha stood at 100%.

Turning to `CN/C(=N\c1cc([S+]([O-])CC(F)(F)F)c(C)cc1F)c1ccc(Cl)cc1` (stereo not shown) [Ib-37], the pest or weed control at 500 g/ha amounted to 100%. Regarding `CN/C(=N/c1cc([S+]([O-])CC(F)(F)F)c(Cl)cc1F)C(F)(F)F` (stereo not shown) [Ib-41], the pest or weed control at 500 g/ha was determined as 90%.

As for `Cc1cc(F)c(/N=C(\N)c2ccccn2)cc1[S+]([O-])CC(F)(F)F` (stereo not shown) [Ib-45], the pest or weed control at 500 g/ha was 100%. With `CCN/C(=N\c1cc([S+]([O-])CC(F)(F)F)c(C)cc1F)C1CC1` (stereo not shown) [Ib-46], the pest or weed control at 500 g/ha was 100%. Same read-out and setting: next, `Cc1cc(F)c(/N=C(/NC(C)(C)C)C(F)(F)F)cc1[S+]([O-])CC(F)(F)F` (stereo not shown) [Ib-50]: 100%. With `Cc1cc(F)c(/N=C(/C2CC2)N(C)C)cc1[S+]([O-])CC(F)(F)F` (stereo not shown) [Ib-51], the pest or weed control at 500 g/ha is 100%.

With `Cc1cc(F)c(/N=C2\CCCCN2C)cc1[S+]([O-])CC(F)(F)F` (stereo not shown) [Ib-52], the pest or weed control at 500 g/ha was 100%. As for `Cc1cc(F)c(/N=C(\N)C2CC2)cc1[S+]([O-])CC(F)(F)F` (stereo not shown) [Ib-53], the pest or weed control at 500 g/ha is 100%. On the same count and under the same terms, next, `Cc1cc(F)c(/N=C(/NC2COC2)C(F)(F)F)cc1[S+]([O-])CC(F)(F)F` (stereo not shown) [Ib-54]: 90%; `Cc1cc(F)c(/N=C(\c2ccc(F)cc2)N(C)C)cc1[S+]([O-])CC(F)(F)F` (stereo not shown) [Ib-60]: 90%; `Cc1cc(F)c(/N=C(\c2ccc(C#N)cc2)N(C)C)cc1[S+]([O-])CC(F)(F)F` (stereo not shown) [Ib-61]: 100%.

As for `Cc1cc(F)c(/N=C(\N)c2cccnc2)cc1[S+]([O-])CC(F)(F)F` (stereo not shown) [Ib-63], the pest or weed control at 500 g/ha is 100%. Turning to `N/C(=N\c1cc([S+]([O-])CC(F)(F)F)c(Cl)cc1Cl)C1(Cl)CC1` (stereo not shown) [Ib-64], the pest or weed control at 500 g/ha stood at 100%. In the case of `Cc1cc(F)c(/N=C(\N)c2ccncn2)cc1[S+]([O-])CC(F)(F)F` (stereo not shown) [Ib-65], the pest or weed control at 500 g/ha was found to be 100%. As for `Cc1cc(F)c(/N=C(\c2cccc(F)c2)N(C)C)cc1[S+]([O-])CC(F)(F)F` (stereo not shown) [Ib-66], the pest or weed control at 500 g/ha was found to be 90%. On to `CN/C(=N/c1cc([S+]([O-])CC(F)(F)F)c(C)cc1F)c1cccc(F)c1` (stereo not shown) [Ib-67], for which the pest or weed control at 500 g/ha turned out to be 90%. Take `N/C(=N\c1cc([S+]([O-])CC(F)(F)F)c(Cl)cc1Cl)c1ccncn1` (stereo not shown) [Ib-69]: the pest or weed control at 500 g/ha was determined as 100%.

Take `Cc1cc(F)c(/N=C(\N)C2(C#N)CC2)cc1[S+]([O-])CC(F)(F)F` (stereo not shown) [Ib-72]: the pest or weed control at 500 g/ha turned out to be 100%.

As to `Cc1cc(F)c(/N=C(/c2ccc(Cl)cc2)N(C)C)cc1[S+]([O-])CC(F)(F)F` (stereo not shown) [Ib-73], the pest or weed control at 500 g/ha amounted to 90%. Take `Cc1cc(F)c(/N=C(/NCc2ccccc2)C(F)(F)F)cc1[S+]([O-])CC(F)(F)F` (stereo not shown) [Ib-74]: the pest or weed control at 500 g/ha was 90%. For the compound `Cc1cc(F)c(/N=C(\c2ccc(C(F)(F)F)nc2)N(C)C)cc1[S+]([O-])CC(F)(F)F` (stereo not shown) [Ib-75], the pest or weed control at 500 g/ha was determined as 100%. Same read-out and setting: the same measure for `CN/C(=N\c1cc([S+]([O-])CC(F)(F)F)c(C)cc1F)c1cccc(Cl)c1` (stereo not shown) [Ib-76]: 100%.

Still in this experiment, the particulars now being: Tetranychus urticae, foliar, 144 h, read-out: efficacy (spider mites killed).
On to `Cc1cc(F)c(/N=C2/NCCS2)cc1SCC(F)(F)F` [Ia-238, 2-Fluoro-4-methyl-N-[1,3-thiazolidin-2-ylidene]-5-[(2,2,2-trifluoroethyl)sulfanyl]aniline], for which the pest or weed control at 500 g/ha turned out to be 100%. Same read-out and setting: next, `Cc1cc(F)c(/N=C2\NCCO2)cc1SCC(F)(F)F` [Ia-243]: 90%; `COc1cc(C)c(SCC(F)(F)F)cc1/N=C(/c1ccc(Cl)cc1)N1CCOCC1` [Ia-268, N-[(4-Chlorophenyl)(morpholin-4-yl)methylene]-2-methoxy-4-methyl-5-[(2,2,2-trifluoroethyl)sulfanyl]aniline]: 90%.
